# According to publication PMC12838644, “Dihydrotanshinone as a Natural Product-Based CYP17A1 Lyase Inhibitor for Hyperandrogenic Disorders” (Biomolecules, 2026):
# Tests used:
# CYP17A1 17α-hydroxylase = biological target: T1, CYP17A1 17α-hydroxylase (Homo sapiens, UniProt P05093); experiment: CYP17A1 17α-hydroxylase activity assay (progesterone to 17OH-progesterone, reconstituted POR/CYP17A1); format: biochemical; details: 10 µM (SM extract 10 µg/mL)
# T1 sequence (P05093 1-508): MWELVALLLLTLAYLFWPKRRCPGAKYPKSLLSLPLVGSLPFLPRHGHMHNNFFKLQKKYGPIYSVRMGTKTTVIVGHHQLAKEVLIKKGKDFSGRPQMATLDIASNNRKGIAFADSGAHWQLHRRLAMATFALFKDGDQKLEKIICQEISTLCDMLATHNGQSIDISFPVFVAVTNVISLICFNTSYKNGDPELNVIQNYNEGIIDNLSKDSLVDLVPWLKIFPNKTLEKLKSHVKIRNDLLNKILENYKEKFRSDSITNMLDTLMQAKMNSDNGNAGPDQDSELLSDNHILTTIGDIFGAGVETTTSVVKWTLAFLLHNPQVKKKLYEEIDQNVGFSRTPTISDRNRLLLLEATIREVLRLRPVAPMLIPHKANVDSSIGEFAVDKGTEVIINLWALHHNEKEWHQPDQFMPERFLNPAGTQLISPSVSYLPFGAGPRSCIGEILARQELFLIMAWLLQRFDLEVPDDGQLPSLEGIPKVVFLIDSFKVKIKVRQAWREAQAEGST
# Procedure: (§1) Assay of CYP17A1 17α-hydroxylase and 17,20-lyase activities were performed as described previously. The 17α-hydroxylase activity was measured by conversion of progesterone to 17OH-progesterone, while production of DHEA from 17OH-pregnenolone was used for monitoring the 17,20-lyase activity of CYP17A1. In vitro CYP17A1 assays were performed using a liposome system consisting of human p450 oxidoreductase (POR) and CYP17A1 at a ratio of 3:4 (POR: CYP17A1). The final assay mixture consisted of proteins (37.5 nmol POR: 50 nmol CYP17A1), 10 mM MgCl2, 6 mM potassium acetate (KOAc), 0.05 mg/mL DLPC,1 mM reduced Glutathione in 50 mM HEPES-NaOH buffer (pH 7.4), and the reaction volume was 200 μL. The drugs were added to the final mixture and incubated for 1h before the catalytic reaction was initiated by the addition of NADPH to 1 mM final concentration. Radiolabeled [^14C]-progesterone (10,000 cpm in 1 µM) was used as a tracer in each reaction. Steroids were extracted and separated by thin-layer chromatography (TLC) on silica gel (SIL G/UV254) TLC plates (Macherey-Nagel, Oensingen, Switzerland) as previously described.
# CYP17A1 17,20-lyase = biological target: T2, CYP17A1 17,20-lyase (Homo sapiens, UniProt P05093); experiment: CYP17A1 17,20-lyase activity assay (DHEA from 17OH-pregnenolone, POR, CYP17A1 and cytochrome b5); format: biochemical
# T2 sequence (P05093 1-508): T1 sequence (P05093 1-508)
# Procedure: as §1, with “The final assay mixture consisted of proteins (37.5 nmol POR: 50 nmol CYP17A1), 10 mM MgCl2, 6 mM potassium acetate (KOAc), 0.05 mg/mL DLPC,1 mM reduced Glutathione in 50 mM HEPES-NaOH buffer (pH 7.4), and the reaction volume was 200 μL.” left out
# In vitro CYP17A1 17,20-lyase activity assays were performed using POR, CYP17A1 and cytochrome b5 as described previously. The final assay mixture consisted of proteins, 10 mM MgCl2, 6 mM KOAc, 0.05 mg/mL DLPC, 1 mM reduced glutathione in 50 mM HEPES-NaOH buffer (pH 7.4), and the reaction volume was 200 μL. The drugs were added to the final mixture and incubated for 1h before the catalytic reaction was initiated by the addition of NADPH to 1 mM final concentration. Radiolabeled [^3H]-17OH-pregnenolone (50,000 cpm in 1 µM) was added as a tracer and the enzyme activity was measured by using the scintillation counter in the water release assay.
# CYP21A2 = biological target: T3, CYP21A2 (Homo sapiens, UniProt P08686); experiment: CYP21A2 activity assay in transiently transfected HEK-293T cells; format: cell-based; details: transfected HEK-293T cells
# T3 construct: expressed in transfected cells; host or cells: HEK293 / HEK-293T
# T3 sequence (P08686 1-495): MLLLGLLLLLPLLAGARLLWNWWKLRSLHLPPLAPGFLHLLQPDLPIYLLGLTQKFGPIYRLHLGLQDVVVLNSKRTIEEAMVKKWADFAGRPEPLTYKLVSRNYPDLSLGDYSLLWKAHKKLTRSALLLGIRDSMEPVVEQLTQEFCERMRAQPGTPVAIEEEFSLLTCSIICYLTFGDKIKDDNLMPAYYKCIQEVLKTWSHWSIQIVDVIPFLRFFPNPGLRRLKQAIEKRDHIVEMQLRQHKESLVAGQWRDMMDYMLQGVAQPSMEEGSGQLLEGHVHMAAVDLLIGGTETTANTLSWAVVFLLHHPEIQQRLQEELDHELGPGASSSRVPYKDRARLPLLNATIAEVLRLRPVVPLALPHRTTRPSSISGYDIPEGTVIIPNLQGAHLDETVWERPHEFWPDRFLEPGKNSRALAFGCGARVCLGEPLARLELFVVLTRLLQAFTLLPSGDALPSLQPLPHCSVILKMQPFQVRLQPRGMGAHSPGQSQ
# Procedure: Transient transfections were performed using the CYP21A2 WT vector as described previously. HEK293 cells were seeded in six-well plates (3 × 10^5 cells/well). After 24 h, the growth medium was replaced, and cells were transfected using Lipofectamine 2000 (Thermo Fisher Scientific, Bedford, MA, USA) with 12.5 µg of plasmid (plasmid concentration: 1068 µg/mL). Twenty-four hours after transfection, transfected cells were replated in 24-well plates (1.5 × 10^5 cells/well) to ensure homogeneity of the cell population across the wells. Six hours after transfection, 2 mL of fresh medium was replaced, and the cells were cultured for 48 h. Cell growth was examined. […] DMSO was added to the negative control, and 10 µM abiraterone was added to the positive control, and the cells were incubated for 4 h. Functional assays were initiated by adding 1 µM unlabeled progesterone (using 10,000 cpm of [^14C]-progesterone as a tracer). After incubation at 37 °C for 1 h, the culture medium and cells were harvested. Steroids were extracted from the culture medium with ethyl acetate and isooctane (1:1 volume ratio), dried, and dissolved in dichloromethane. Steroids were separated by thin-layer chromatography (TLC), placed on a phosphor screen, and visualized using a Typhoon PhosphorImager FLA-7000 (GE Healthcare Bio-Sciences AB, Uppsala, Sweden). Image intensity was measured and quantified using ImageQuant TL v8 (Cytiva, Marlborough, MA, USA). The CYP21A2 enzyme activity was expressed as relative steroid conversion. Steroids were quantified as a percentage of radioactivity incorporated into […] to the total radioactivity measured in the whole sample and compared between the WT and variants. Cells were collected with trypsin and washed with 1× PBS to quantify the amount of protein. Results were analyzed from three technical replicates. To ensure a similar amount of CYP21A2 in each reaction, a Western blot analysis was performed to normalize the enzyme activity with the relative CYP21A2 expression.
smiles,measurement,setting,value
"C[C@]12CC[C@H](O)CC1=CC[C@@H]1[C@@H]2CC[C@]2(C)C(c3cccnc3)=CC[C@@H]12 [Abiraterone, abiraterone, reference compound]",inhibition at 10 µM,"CYP17A1 17α-hydroxylase; calculated as 100% − % residual activity, read-out: % Inhibition CYP17A1-OH",94.7%
same,Residual 17α-hydroxylase activity,CYP17A1 17α-hydroxylase; % of DMSO control,5.3%
same,inhibition at 10 µM,"CYP17A1 17,20-lyase; 10 µM (SM extract 10 µg/mL), calculated as 100% − % residual activity, read-out: % Inhibition CYP17A1-Lyase",69.6%
same,"Residual 17,20-lyase activity","CYP17A1 17,20-lyase; % of DMSO control, 10 µM (SM extract 10 µg/mL)",30%
same,Lyase/CYP21A2 Selectivity Index,"CYP17A1 17,20-lyase; (% Inhibition Lyase)/(% Inhibition CYP21A2) at 10 µM (SM 10 µg/mL)",2.34
same,Lyase/OH Selectivity Index,"CYP17A1 17,20-lyase; (% Inhibition Lyase)/(% Inhibition OH) at 10 µM (SM 10 µg/mL)",0.73
same,inhibition at 10 µM,"CYP21A2; 10 µM (SM extract 10 µg/mL), calculated as 100% − % residual activity, read-out: % Inhibition CYP21A2",29.8%
same,Residual CYP21A2 activity,"CYP21A2; % of DMSO control, 10 µM",70%
